According to ChEMBL document CHEMBL1933034, “Synthesis, docking and in vitro antimalarial evaluation of bifunctional hybrids derived from β-lactams and 7-chloroquinoline using click chemistry” (Bioorg Med Chem Lett, 2012):

The compounds below were run on Plasmodium falciparum (assay: Antimalarial activity against chloroquine-resistant ring stage of Plasmodium falciparum W2 infected in human erythrocytes assessed as inhibition of parasitemia after 48 hrs by FACS analysis). Conditions: W2, 48 h.
Assay type: functional, organism-based

| Structure (SMILES) | IC50 [nM] |
| --- | --- |
| Cc1ccc(N2C(=O)[C@@H](NCc3cn(-c4ccnc5cc(Cl)ccc45)nn3)[C@H]2/C=C/c2ccccc2)cc1 | > 10000 |
| O=C1[C@@H](NCc2cn(-c3ccnc4cc(Cl)ccc34)nn2)[C@@H](/C=C/c2ccccc2)N1c1ccccc1 | 1900 |
| O=C1[C@@H](NCc2cn(-c3ccnc4cc(Cl)ccc34)nn2)[C@@H](/C=C/c2ccccc2)N1c1ccc(F)cc1 | > 10000 |
| O=C1[C@@H](NCc2cn(-c3ccnc4cc(Cl)ccc34)nn2)[C@@H](/C=C/c2ccccc2)N1C1CCCCC1 | 4300 |
| O=C1[C@@H](NCc2cn(-c3ccnc4cc(Cl)ccc34)nn2)[C@@H](/C=C/c2ccccc2)N1Cc1ccccc1 | 5900 |
| Cc1ccc(N2C(=O)[C@@H](N(Cc3cn(-c4ccnc5cc(Cl)ccc45)nn3)Cc3cn(-c4ccnc5cc(Cl)ccc45)nn3)[C@H]2/C=C/c2ccccc2)cc1 | 1500 |
| O=C1[C@@H](N(Cc2cn(-c3ccnc4cc(Cl)ccc34)nn2)Cc2cn(-c3ccnc4cc(Cl)ccc34)nn2)[C@@H](/C=C/c2ccccc2)N1c1ccccc1 | 2100 |
| O=C1[C@@H](N(Cc2cn(-c3ccnc4cc(Cl)ccc34)nn2)Cc2cn(-c3ccnc4cc(Cl)ccc34)nn2)[C@@H](/C=C/c2ccccc2)N1c1ccc(F)cc1 | 1100 |
| O=C1[C@@H](N(Cc2cn(-c3ccnc4cc(Cl)ccc34)nn2)Cc2cn(-c3ccnc4cc(Cl)ccc34)nn2)[C@@H](/C=C/c2ccccc2)N1C1CCCCC1 | 2800 |
| O=C1[C@@H](N(Cc2cn(-c3ccnc4cc(Cl)ccc34)nn2)Cc2cn(-c3ccnc4cc(Cl)ccc34)nn2)[C@@H](/C=C/c2ccccc2)N1Cc1ccccc1 | 2700 |
